Laboratory results as given in patent US10941120B1, “6-aminouracil cassic acid ester with antibacterial activity and a method of preparing the same” (SHAANXI UNIVERSITY OF SCIENCE AND TECHNOLOGY, priority 2020, dated 2021).
Values after ≈ are worked out from the molar mass of the structure shown.

Columns and labels:
Format in all cases: cell-based
[1] = test system: methicillin-resistant Staphylococcus aureus MRSA 18-222; assay: MIC by microbroth dilution, MRSA 18-222
Description: (§1) The minimal inhibitory concentration (MIC) of the compounds as determined by a microbroth dilution method with gentamicin, cefazolin sodium and ceftriaxone sodium as positive control.
(§2) The experimental strains included methicillin-resistant Gram-positive bacteria: methicillin-resistant Staphylococcus aureus MRSA 18-222, 18-575; multiple drug-resistant […] bacteria: vancomycin-resistant enterococci VRE 18-80, 18-94; multidrug-resistant Pseudomonas aeruginosa MDR-PA 18-1774, 18-202; carbapenem-resistant Acinetobacter baumannii CR-AB 18-183, 18-560. All the experimental strains were donated by Huashan Hospital affiliated to Fudan University (Institute of Antibiotics, Fudan University) and used after routine identification.
(§3) Preparation of Test Strains:
(§4) Preparation of MHB medium: 20.0 g MHB medium was added to 1 L distilled water, boiled until completely dissolved, packed in conical bottles and sterilized at 121° C. for 15 min.
(§5) The experimental strain was cultured to the logarithmic growth phase: under aseptic condition, the experimental strain was inoculated into 100 mL NMB medium and incubated in a constant temperature and humidity incubator at 37° C. for 20-22 hours.
(§6) Preparation of storage solution: weigh the sample to be tested, dissolve it with 1% DMSO solution, prepare a storage solution with a concentration of 2560 μg/mL, weigh a positive reference substance, dissolve it with aseptic distilled water, and configure a storage solution with a concentration of 2560 μg/mL.
(§7) Preparation of bacterial suspension: under aseptic condition, the experimental strains cultured to logarithmic growth phase were adjusted to 0.5 MCF turbidity standard with MHB medium and diluted according to 1:10, and the bacterial suspension with concentration of 10^6 CFU/mL was prepared for standby.
(§8) Dilution of storage solution and inoculation of experimental strain: under aseptic condition, the storage solution was diluted to 256 μg/mL solution. Take a sterile 96-well plate, add 200 μL MHB medium to the 12th well, and add 100 μL MHB medium to each well. Add 100 μL of positive control solution to the first well, mix well, and suck 100 μL from it and discard. Add 100 μL of the compound sample solution to the second well, mix well, and then pipette 100 μL to the third well. After mixing, pipette 100 μL to the fourth well, and dilute to the 11th well in this way. Finally, 100 μL was pipetted from the 11th well and discarded. The 12th hole was the growth control without drugs. So far, the concentration of the positive reference substance is 128 μg/mL, the concentrations of the sample solution are 128, 64, 16, 8, 4, 2, 1, 0.5, 0.25 μg/mL respectively. Then, 100 μL of the prepared bacterial suspension is added to each well, so that the final concentration of the bacterial liquid in each well is 5×10^5 CFU/mL.
(§9) Incubation: Cover the 96-well plate inoculated with the experimental strains, and incubate in a constant temperature and humidity box at 37° C. for 20-22 hours.

[2] = test system: methicillin-resistant Staphylococcus aureus MRSA 18-575; assay: MIC by microbroth dilution, MRSA 18-575
Description: as §1, §2, §3, §4, §5, §6, §7, §8, §9

[3] = test system: carbapenem-resistant Acinetobacter baumannii CR-AB 18-183; assay: MIC by microbroth dilution, CR-AB 18-183
Description: as §1, §2, §3, §4, §5, §6, §7, §8, §9

[4] = test system: multidrug-resistant Pseudomonas aeruginosa MDR-PA 18-202; assay: MIC by microbroth dilution, MDR-PA 18-202
Description: as §1, §2, §3, §4, §5, §6, §7, §8, §9

[5] = test system: carbapenem-resistant Acinetobacter baumannii CR-AB 18-560; assay: MIC by microbroth dilution, CR-AB 18-560
Description: as §1, §2, §3, §4, §5, §6, §7, §8, §9

[6] = test system: vancomycin-resistant enterococci VRE 18-94; assay: MIC by microbroth dilution, VRE 18-94; settings: for Minimum bacteriostatic concentration: VRE 18-94
Description: as §1, §2, §3, §4, §5, §6, §7, §8, §9

[7] = test system: multidrug-resistant Pseudomonas aeruginosa MDR-PA 18-174; assay: MIC by microbroth dilution, MDR-PA 18-174; settings: for Minimum bacteriostatic concentration: MDR-PA 18-174
Description: as §1, §2, §3, §4, §5, §6, §7, §8, §9
In FIGS. 1-6, the twelve wells represent twelve groups, from left to right, positive, 128 μg/mL, 64 μg/mL, 32 μg/mL, 16 μg/mL, 8 μg/mL, 4 μg/mL, 2 μg/mL, 1 μg/mL, 0.25 μg/mL, 0.0625 μg/mL, Negative.

[8] = test system: vancomycin-resistant enterococci VRE 18-80; assay: MIC by microbroth dilution, VRE 18-80
Description: as §1, §2, §3, §4, §5, §6, §7, §8, §9

drug-resistant bacteria = assay: Antibacterial activity test, whole panel of drug-resistant strains; settings: all tested strains, summary in words
Description: as §1, §2, §3, §4
The experimental strain was cultured to the logarithmic growth phase: under aseptic condition, the experimental strain was inoculated into 100 mL NMB medium and incubated in a constant temperature and humidity incubator at 37° C. for 20-22 hours. […]

Row | Compound | Minimum bacteriostatic concentration [1] [µg/mL] | Minimum bacteriostatic concentration [2] [µg/mL] | Minimum bacteriostatic concentration [3] [µg/mL] | Minimum bacteriostatic concentration [4] [µg/mL] | Minimum bacteriostatic concentration [5] [µg/mL] | Minimum bacteriostatic concentration [6] [µg/mL] | Minimum bacteriostatic concentration [7] [µg/mL] | Minimum bacteriostatic concentration [8] [µg/mL] | inhibitory effect on drug-resistant bacteria (drug-resistant bacteria) | MIC ([6]; vancomycin resistant Enterococcus VRE, strain not given) [µg/mL] | MIC ([7]; multi-drug resistant Pseudomonas aeruginosa MDR-PA, strain not given) [µg/mL]
1 | CO/N=C(\C(=O)N[C@@H]1C(=O)N2C(C(=O)O)=C(CSc3nc(=O)c(=O)[nH]n3C)CS[C@H]12)c1csc(N)n1 [Ceftriaxone sodium, ceftriaxone sodium] | >128 | >128 | >128 | 16 | >128 | >128 | 128 | 8 | – | – | –
2 | O=C(O)c1cc(O)c2c(c1)C(=O)c1cccc(O)c1C2=O [Cassic acid] | >128 | >128 | >128 | >128 | >128 | >128 | >128 | >128 | no inhibitory effect | – | –
3 | gentamicin | 128 | 2 | >128 | 0.0625 | >128 | >128 | 0.0625 | 0.0625 | – | – | –
4 | Cc1nnc(SCC2=C(C(=O)O)N3C(=O)[C@@H](NC(=O)Cn4cnnn4)[C@H]3SC2)s1 [Cefazolin sodium, cefazolin sodium] | >128 | >128 | >128 | 128 | >128 | >128 | 8 | 32 | – | – | –
5 | O=C(Nc1cc(=O)[nH]c(=O)[nH]1)c1cc(O)c2c(c1)C(=O)c1cccc(O)c1C2=O [6-Aminouracil cassic acid ester, N-(2,6-dioxo-1,2,3,6-tetrahydropyrimidin-4-yl)-4,5-dihydroxy-9,10-dioxo-9,10-dihydroanthracene-2-carboxamide] | >128 | >128 | >128 | >128 | >128 | 64 | 128 | >128 | – | 64 (≈ 163 µM) | 128 (≈ 325 µM)
6 | Nc1cc(=O)[nH]c(=O)[nH]1 [6-Aminouracil] | >128 | >128 | >128 | >128 | >128 | >128 | >128 | >128 | no inhibitory effect | – | –
